The numbers were not newly measured in patent US6506938B1, “Process for the purifying of iopamidol” (Bracco International B.V., priority 1993, dated 2003), which cites them from elsewhere.

Where two headings read alike, the source gives them in different places.

For data set [1] the following is noted: British patent no. 1,472,050.
The conditions of data set [2]: Boll. Chim. Farm., 120, 639, (1981).

`C[C@H](O)C(=O)Nc1c(I)c(C(=O)NC(CO)CO)c(I)c(C(=O)NC(CO)CO)c1I` [Iopamidol, L-5-α-hydroxypropionylamino-2,4,6-triiodo-isophthalic acid bis-(1,3-dihydroxyisopropylamide)]: the solubility in ethanol entry in data set [1] (ethanol, room temperature) was “about 10%”; in data set [2] (ethanol) it was “practically insoluble”. Moreover, the solubility in methanol result is “practically unlimited solubility” in data set [1] (methanol) and “only slightly soluble” in data set [2] (methanol). The solubility in water entry in data set [1] (water) is listed as “dissolves very easily”; in data set [2] (water), “very soluble”. Besides, the solubility in benzene result in data set [2] (benzene) is on record as “practically insoluble”. For the same molecule, in data set [2] (chloroform), the solubility in chloroform result is reported as “practically insoluble”. Also, the solubility in diethylether result in data set [2] (diethylether) is recorded as “practically insoluble”.
